Data reported in DBAASP.
In brackets after ≈: the same amount, converted by molar mass. Blank lines part the entries; values can stand above or below the compound they belong to.

What was measured:
Test in all cases: ≥ marks a high value that may be exact or a test limit, other limits are often not marked, values filed in µg/mL are converted to µM
[1] = test system: Staphylococcus epidermidis ATCC 12228
[2] = test system: Bacillus subtilis ATCC 6633
[3] = test system: Pseudomonas aeruginosa ATCC 27853
[4] = test system: Shigella dysenteriae ATCC 9752
[5] = test system: Escherichia coli ATCC 25922
[6] = test system: Staphylococcus aureus ATCC 6538P
[7] = test system: Salmonella enterica subsp. enterica serovar Typhimurium ATCC 14028
[8] = test system: Klebsiella pneumoniae ATCC 10031
[9] = test system: Micrococcus luteus ATCC 10240
[10] = test system: Escherichia coli NCTC 10418
[11] = test system: Staphylococcus aureus NCTC 10788
[12] = test system: Candida albicans NCYC 1467
[13] = test system: Staphylococcus aureus ATCC 43300
[14] = test system: Staphylococcus aureus ATCC 25923
Escherichia coli ML-35p = test system: Escherichia coli ML-35p
Bacillus subtilis = test system: Bacillus subtilis
[15] = test system: Pseudomonas aeruginosa PAO1
[16] = test system: Candida albicans ATCC 2002
Escherichia coli = test system: Escherichia coli
Saccharomyces cerevisiae = test system: Saccharomyces cerevisiae
[17] = test system: Staphylococcus epidermidis
Proteus mirabilis = test system: Proteus mirabilis
Micrococcus luteus = test system: Micrococcus luteus
Serratia marcescens = test system: Serratia marcescens
Candida albicans = test system: Candida albicans
Pseudomonas aeruginosa = test system: Pseudomonas aeruginosa
Shigella dysenteriae = test system: Shigella dysenteriae
Salmonella typhimurium = test system: Salmonella typhimurium
Staphylococcus aureus = test system: Staphylococcus aureus
Streptococcus uberis = test system: Streptococcus uberis
Pasteurella multocida = test system: Pasteurella multocida
Bacillus cereus = test system: Bacillus cereus
Leuconostoc lactis = test system: Leuconostoc lactis
Listeria innocua = test system: Listeria innocua
[18] = test system: Salmonella typhimurium ATCC 7731
[19] = test system: Staphylococcus aureus ATCC 29213
Escherichia coli UB1005 = test system: Escherichia coli UB1005
[20] = test system: Bacillus subtilis CMCC 63501
[21] = test system: Candida albicans ATCC 10231
[22] = test system: Pseudomonas aeruginosa ATCC 15442

MIC (Staphylococcus aureus): 9.57 µM (≈ 25 µg/mL)
MIC (Escherichia coli): > 38.3 µM
MIC [17]: 9.57 µM (≈ 25 µg/mL)
MIC (Micrococcus luteus): 4.59 µM (≈ 12 µg/mL)
MIC (Streptococcus uberis): 19.1 µM (≈ 50 µg/mL)
MIC (Pasteurella multocida): 9.57 µM (≈ 25 µg/mL)
MIC (Bacillus cereus): 19.1 µM (≈ 50 µg/mL)
MIC (Leuconostoc lactis): 1.15 µM (≈ 3 µg/mL)
MIC (Listeria innocua): 19.1 µM (≈ 50 µg/mL)
Compound: CC[C@H](C)[C@H](NC(=O)[C@@H](NC(=O)[C@@H]1CCCN1C(=O)[C@@H](NC(=O)[C@@H](NC(=O)[C@H](Cc1cnc[nH]1)NC(=O)[C@@H]1CCCN1C(=O)[C@@H](NC(=O)[C@@H](NC(=O)[C@H](Cc1cnc[nH]1)NC(=O)[C@H](CCCCN)NC(=O)[C@@H](NC(=O)[C@@H](NC(=O)[C@H](CO)NC(=O)CNC(=O)[C@H](CC(C)C)NC(=O)[C@@H](NC(=O)[C@H](CO)NC(=O)[C@H](CC(C)C)NC(=O)[C@H](CC(C)C)NC(=O)CN)C(C)C)C(C)C)C(C)C)C(C)C)[C@@H](C)CC)C(C)C)C(C)C)C(C)C)C(=O)N[C@@H](C)C(=O)N[C@@H](CCC(=O)O)C(=O)N[C@@H](Cc1cnc[nH]1)C(=O)N[C@@H](CC(C)C)C(N)=O [GLLSVLGSVVKHVIPHVVPVIAEHL]

MIC [1]: > 128 µM
MIC [18]: ≥ 128 µM
MIC [19]: > 128 µM
MIC [3]: > 128 µM
MIC [5]: > 128 µM
MIC [7]: > 128 µM
MIC (Escherichia coli UB1005): ≥ 128 µM
MIC [20]: ≥ 128 µM
Compound: CC[C@H](C)[C@H](NC(=O)CNC(=O)[C@H](C)NC(=O)[C@H](C)NC(=O)[C@@H](NC(=O)[C@@H](NC(=O)[C@H](CC(N)=O)NC(=O)[C@@H](NC(=O)[C@H](C)NC(=O)[C@@H](NC(=O)[C@@H]1CCCN1C(=O)[C@@H](NC(=O)[C@H](CC(C)C)NC(=O)[C@@H]1CCCN1C(=O)[C@H](Cc1c[nH]c2ccccc12)NC(=O)[C@H](Cc1ccccc1)NC(=O)[C@H](CCCN=C(N)N)NC(=O)[C@@H](N)CCCCN)C(C)C)C(C)C)[C@@H](C)CC)[C@@H](C)O)C(C)C)C(=O)N[C@@H](CC(N)=O)C(N)=O [KRFWPLVPVAINTVAAGIN]

MIC [21]: 78.9 µM (≈ 128 µg/mL)
MIC [19]: 0.154 µM (≈ 0.25 µg/mL)
MIC [22]: ≥ 78.9 µM
Compound: CC[C@H](C)[C@H](NC(=O)[C@H](C)NC(=O)[C@@H](N)C(C)C)C(=O)N[C@@H](C)C(=O)N[C@@H](CC(C)C)C(=O)N[C@@H](CCCCN)C(=O)N[C@@H](C)C(=O)N[C@@H](C)C(=O)N[C@@H](Cc1cnc[nH]1)C(=O)N[C@@H](Cc1ccc(O)cc1)C(=O)N[C@@H](Cc1cnc[nH]1)C(=O)N[C@H](C(=O)N[C@@H](C)C(=O)N[C@@H](CCCCN)C(=O)N[C@@H](CCC(=O)O)C(=O)O)[C@@H](C)O [VAIALKAAHYHTAKE]

More lines, now with the values behind:

Compound: CC(C)C[C@H](NC(=O)[C@H](Cc1c[nH]c2ccccc12)NC(=O)[C@H](CCCCN)NC(=O)[C@H](Cc1ccccc1)NC(=O)[C@H](C)NC(=O)[C@H](Cc1c[nH]c2ccccc12)NC(=O)[C@H](CCCCN)NC(=O)[C@H](C)NC(=O)[C@@H](N)Cc1ccccc1)C(=O)N[C@@H](CCCCN)C(=O)N[C@@H](CCCCN)C(N)=O [FAKWAFKWLKK]
MIC [1]: 4.34 µM (≈ 6.3 µg/mL)
MIC [2]: 4.34 µM (≈ 6.3 µg/mL)
MIC [3]: 8.6 µM (≈ 12.5 µg/mL)
MIC [4]: 8.6 µM (≈ 12.5 µg/mL)
MIC [5]: 8.6 µM (≈ 12.5 µg/mL)
MIC [6]: 4.34 µM (≈ 6.3 µg/mL)
MIC [7]: 17.2 µM (≈ 25 µg/mL)
MIC [8]: 4.34 µM (≈ 6.3 µg/mL)
MIC [9]: 4.34 µM (≈ 6.3 µg/mL)

Compound: CC[C@H](C)[C@H](NC(=O)CNC(=O)CNC(=O)[C@H](C)NC(=O)[C@@H](NC(=O)[C@H](CCCCN)NC(=O)[C@@H]1CCCN1C(=O)[C@@H](NC(=O)[C@H](CCSC)NC(=O)[C@H](CO)NC(=O)[C@H](Cc1ccccc1)NC(=O)[C@@H](N)Cc1ccccc1)[C@@H](C)CC)[C@@H](C)CC)C(=O)N[C@@H](C)C(=O)N[C@@H](CO)C(=O)N[C@@H](CC(C)C)C(=O)N[C@H](C(=O)N[C@@H](CCCCN)C(=O)N[C@@H](CC(N)=O)C(=O)N[C@@H](CC(C)C)C(N)=O)C(C)C [FFSMIPKIAGGIASLVKNL]
MIC [10]: ≥ 63.8 µM
MIC [11]: 3.99 µM (≈ 8 µg/mL)
MIC [12]: 3.99 µM (≈ 8 µg/mL)

Compound: CC[C@H](C)[C@H](NC(=O)CNC(=O)[C@H](Cc1c[nH]c2ccccc12)NC(=O)[C@H](CS)NC(=O)[C@H](CO)NC(=O)[C@@H](NC(=O)[C@H](CCC(N)=O)NC(=O)[C@H](Cc1ccccc1)NC(=O)[C@@H]1CCCN1C(=O)[C@@H]1CCCN1C(=O)[C@H](CCCN=C(N)N)NC(=O)[C@H](CCCCN)NC(=O)[C@H](Cc1c[nH]c2ccccc12)NC(=O)[C@@H](NC(=O)[C@H](CCCCN)NC(=O)[C@@H](N)Cc1ccccc1)[C@@H](C)O)[C@@H](C)O)C(=O)N[C@H](C(=O)N[C@@H](CCCCN)C(=O)N[C@@H](CCC(=O)O)C(=O)O)[C@@H](C)CC [FKTWKRPPFQTSCWGIIKE]
MIC [13]: 23.4 µM (≈ 55 µg/mL)
MIC [14]: 11.7 µM (≈ 27.5 µg/mL)
MIC (Escherichia coli ML-35p): ≥ 46.8 µM
MIC (Bacillus subtilis): ≥ 46.8 µM
MIC [3]: 23.4 µM (≈ 55 µg/mL)
MIC [15]: 23.4 µM (≈ 55 µg/mL)
MIC [16]: 5.84 µM (≈ 13.8 µg/mL)

Compound: CC[C@H](C)[C@H](NC(=O)CN)C(=O)N[C@@H](CC(C)C)C(=O)N[C@@H](CC(=O)O)C(=O)N[C@H](C(=O)N[C@@H](CC(C)C)C(=O)N[C@@H](CCCCN)C(=O)N[C@@H](CCC(N)=O)C(=O)N[C@@H](Cc1ccccc1)C(=O)N[C@@H](C)C(=O)N[C@@H](CCCCN)C(=O)NCC(=O)N[C@H](C(=O)NCC(=O)N[C@@H](CCCCN)C(=O)N[C@@H](CC(=O)O)C(=O)N[C@@H](CC(C)C)C(=O)N[C@H](C(=O)N[C@@H](CCCCN)C(=O)NCC(=O)N[C@@H](C)C(=O)N[C@@H](C)C(=O)N[C@@H](CCC(N)=O)C(=O)NCC(=O)N[C@H](C(=O)N[C@@H](CC(C)C)C(=O)N[C@@H](CO)C(=O)O)C(C)C)C(C)C)C(C)C)[C@@H](C)O [GILDTLKQFAKGVGKDLVKGAAQGVLS]
MIC (Escherichia coli): 9.21 µM (≈ 25 µg/mL)
MIC (Saccharomyces cerevisiae): 9.21 µM (≈ 25 µg/mL)
MIC [17]: 18.4 µM (≈ 50 µg/mL)
MIC (Proteus mirabilis): 18.4 µM (≈ 50 µg/mL)
MIC (Micrococcus luteus): 0.921 µM (≈ 2.5 µg/mL)
MIC (Serratia marcescens): ≥ 36.8 µM
MIC (Bacillus subtilis): 18.4 µM (≈ 50 µg/mL)
MIC (Candida albicans): > 36.8 µM
MIC (Pseudomonas aeruginosa): 9.21 µM (≈ 25 µg/mL)
MIC (Shigella dysenteriae): 9.21 µM (≈ 25 µg/mL)
MIC (Salmonella typhimurium): 27.6 µM (≈ 75 µg/mL)

Compound: CC[C@H](C)[C@H](NC(=O)[C@@H](NC(=O)[C@H](C)NC(=O)[C@H](Cc1ccccc1)NC(=O)[C@H](CC(C)C)NC(=O)CN)C(C)C)C(=O)N[C@@H](CCCCN)C(=O)N[C@@H](CCCCN)C(=O)N[C@H](C(=O)N[C@@H](C)C(=O)N[C@@H](CO)C(=O)N[C@H](C(=O)N[C@H](C(=O)N[C@@H](CCCCN)C(=O)N[C@@H](CCCCN)C(=O)N[C@@H](CC(C)C)C(N)=O)[C@@H](C)CC)C(C)C)C(C)C [GLFAVIKKVASVIKKL]
MIC (Staphylococcus aureus): 14.6 µM (≈ 25 µg/mL)
MIC (Escherichia coli): 58.3 µM (≈ 99.9 µg/mL)
MIC [17]: 7 µM (≈ 12 µg/mL)
MIC (Micrococcus luteus): 14.6 µM (≈ 25 µg/mL)
MIC (Streptococcus uberis): 14.6 µM (≈ 25 µg/mL)
MIC (Pasteurella multocida): ≥ 58.3 µM
MIC (Bacillus cereus): 14.6 µM (≈ 25 µg/mL)
MIC (Leuconostoc lactis): 1.75 µM (≈ 3 µg/mL)
MIC (Listeria innocua): 3.5 µM (≈ 6 µg/mL)
